Reference: patent publication US12246025B2, “Methods of treating cancer with a combination of a platinum-based agent and an anti-tissue factor antibody-drug conjugate” (priority 2018, dated 2025)

Experiments:
[1] = test system: HuPrime® cervical xenograft model CV1248 [P3]; assay: Anti-tumor efficacy of tisotumab vedotin with carboplatin in cervical cancer PDX mouse model; type: in vivo, BALB/c nude mice; conditions: alone; tisotumab vedotin 2 mg/kg, carboplatin 40 or 80 mg/kg; FIGS. 3A and 3B
Description: The in vivo anti-tumor efficacy of tisotumab vedotin in combination with carboplatin was evaluated in a patient-derived xenograft (PDX) mouse model in female BALB/c nude mice (Crown Bioscience [Taicang] Inc.). Xenografts were derived from tumor specimens from cancer patients. Tumor fragments were obtained from xenografts in serial passage in nude mice. Tumors were cut into fragments of 2-4 mm diameter and placed in phosphate-buffered saline (PBS) until subcutaneous implantation. A cervical cancer PDX model (HuPrime® cervical xenograft model CV1248 [P3]; Crown Bioscience Inc.) was used in this experiment. Tumor size was determined by caliper measurement at least two times a week and tumor volume was calculated as 0.5×length× width^2. When tumors reached an average volume of 150 mm^3, mice were randomized in 7 groups (10 mice per treatment group). The day of randomization was designated day 0. Mice were treated with the following by intravenous injections: 1) tisotumab vedotin alone at a dose level of 2 mg/kg, provided on day 0, day 7 and day 14; 2) carboplatin (Selleck Chemicals, cat. no. […]

[2] = test system: HuPrime® cervical xenograft model CV1248 [R4P5]; assay: Anti-tumor efficacy of tisotumab vedotin with cisplatin in cervical cancer PDX mouse model; type: in vivo, BALB/c nude mice; conditions: alone, tisotumab vedotin 2 mg/kg and 4 mg/kg, cisplatin 4 mg/kg; for tumor growth: FIG. 1A-C; for survival: tumor size cut-off 1000 mm^3, FIGS. 1D and 1E
Description: The in vivo anti-tumor efficacy of tisotumab vedotin in combination with cisplatin was evaluated in a patient-derived xenograft (PDX) mouse model in BALB/c nude mice (Crown Bioscience Inc.). Xenografts were derived from tumor specimens from cancer patients. Establishment and characterization of the PDX model was performed following primary implantation into nude mice. Tumor xenografts were passaged approximately three to five times until establishment of stable growth patterns. Tumor fragments were obtained from xenografts in serial passage in nude mice. Tumors were cut into fragments of 2-3 mm diameter and placed in phosphate-buffered saline (PBS) until subcutaneous implantation. A cervical cancer PDX model (HuPrime® cervical xenograft model CV1248 [R4P5]; Crown Bioscience Inc.) was used in this experiment. Tumor size was determined by caliper measurement at least two times a week and tumor volume was calculated as 0.5×length×width^2. When tumors reached the volume of 200 mm^3, mice were randomized in 11 groups (7-8 mice per treatment group). Mice were treated with the following by intravenous injections: 1) tisotumab vedotin alone at a dose level of 0.5 mg/kg, 1 mg/kg, 2 mg/kg or 4 mg/kg provided on day 0 and day 7 of treatment; 2) cisplatin alone at a dose of 4 mg/kg provided on day 0, day 7 and day 14 of treatment; 3) tisotumab vedotin at a dose level of 0.5 mg/kg, 1 mg/kg, 2 mg/kg or 4 mg/kg provided on day 0 and day 7 of treatment in combination with cisplatin at a dose of 4 mg/kg provided on day 0, day 7 and day 14 of treatment; 4) IgG1 isotype control at a dose of 4 mg/kg provided on day 0 and day 7 of treatment; or 5) IgG1-MMAE control at a dose of 4 mg/kg provided on day 0 and day 7 of treatment. […] Mice were housed in individually ventilated (IVC) cages, four or five mice per cage and identified by ear tags.
To determine whether there were statistically significant differences between tumor volumes in control and treatment groups, tumor volumes in the treatment groups were compared with those in the control group (e.g., treatment groups vs IgG1-MMAE control) using Mann-Whitney analysis at the last day that all groups were intact, i.e., day 38. For survival analysis (tumor volume cut-off was 1,000 mm^3). Mantel-Cox analysis was performed on Kaplan-Meier plots with a cut-off set at tumor volume >1,000 mm^3.

[3] = test system: bladder xenograft model BXF1036; assay: Anti-tumor efficacy of tisotumab vedotin with cisplatin in bladder cancer PDX mouse model; type: in vivo, Crl:NMRI-Foxn1^nu nude mice; conditions: alone; for tumor growth: tisotumab vedotin 0.5 mg/kg, cisplatin 2 mg/kg, FIG. 2A-C; for survival: tumor size cut-off 500 mm^3, FIG. 2D
Description: The in vivo anti-tumor efficacy of tisotumab vedotin in combination with cisplatin was evaluated in a PDX mouse model in female Crl:NMRI-Foxn1^nu (Envigo RMS SARL, France) nude mice (Charles River Discovery Research Services). Xenografts were derived from tumor specimens from cancer patients. Establishment and characterization of the PDX model was performed following primary implantation into nude mice. Tumor xenografts were passaged approximately three to five times until establishment of stable growth patterns. Tumor fragments were obtained from xenografts in serial passage in nude mice. Tumors were cut into fragments of 3-4 mm diameter and placed in phosphate-buffered saline (PBS) until subcutaneous implantation. A bladder cancer PDX model (bladder xenograft model BXF1036; Charles River Discovery Research Services) was used in this experiment. Tumor size was determined by caliper measurement at least two times a week and tumor volume was calculated as 0.52×length×[…]. When tumors reached the volume of 50-250 mm^3, mice were randomized in 5 groups (10 mice per treatment group). Mice were treated with the following: 1) tisotumab vedotin alone at a dose level of 0.5 mg/kg provided on day 1 of treatment; 2) cisplatin alone at a dose of 2 mg/kg provided on day 1 and day 8 of treatment; 3) tisotumab vedotin at a dose level of 0.5 mg/kg provided on day 1 of treatment in combination with cisplatin at a dose of 2 mg/kg provided on day 1 and day 8 of treatment; 4) IgG1 isotype control at a dose of 0.5 mg/kg provided on day 1 of treatment; or 5) IgG1-MMAE control at a dose of 0.5 mg/kg provided on day 1 of treatment. IgG1 isotype control, IgG1-MMAE control and tisotumab vedotin were each in PBS and injected intravenously. Cisplatin was in 0.9% NaCl and injected subcutaneously. […] Mice were housed in individually ventilated (IVC) cages, with a maximum of five mice per cage, and identified by ear tags.
To determine whether there were statistically significant differences between tumor volumes in control and treatment groups, tumor volumes in the treatment groups were compared with those in the control groups (e.g., IgG1-MMAE control, tisotumab vedotin alone or cisplatin alone) using Mann-Whitney analysis at the last day that all groups were intact, i.e., day 25. Statistical analysis of the difference between groups treated with tisotumab vedotin in combination with cisplatin and groups treated with either tisotumab vedotin alone or cisplatin alone was performed on day 32.
Tumor progression was plotted in a Kaplan-Meier plot, with a cut-off set at a tumor volume >500 mm^3. […]

[4] = test system: relapsed, recurrent, and/or metastatic cervical cancer; conditions: cited from earlier work

Compound | tumor growth [1] | tumor growth [2] | survival [2] | tumor growth [3] | survival [3] | efficacy ([4]; 2.0 mg/kg) | safety profile ([4]; 2.0 mg/kg) | grade of reported peripheral neuropathy cases ([4]; in vivo) | Epistaxis (bleeding AE) ([4]; nearly all of the cases are grade 1) | subjects with peripheral neuropathy ([4]; subjects who received treatment with tisotumab vedotin)
N.N.O=C([O-])C1(C(=O)[O-])CCC1.[Pt+2] [Carboplatin, reference compound] | did not inhibit tumor growth | – | – | – | – | – | – | – | – | –
N.N.[Cl][Pt][Cl] [Cisplatin, reference compound] | – | inhibited tumor growth | prolonged survival | inhibited tumor growth | prolonged survival | – | – | – | – | –
Tisotumab vedotin: antibody-drug conjugate comprising an antibody that binds to tissue factor (TF), a protease-cleavable linker, and the microtubule disrupting agent MMAE | efficiently inhibited tumor growth | efficiently inhibited tumor growth | prolonged survival | efficiently inhibited tumor growth | prolonged survival | robust efficacy | manageable safety profile | majority of the reported cases are grade 1-2 | most common reported AE | approximately 35%
